ChEMBL document CHEMBL1201862, “PubChem BioAssay data set” (2004)
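A five-concentration, 48-hour dose response in 96-well plates underlies each endpoint, interpolated linearly between surrounding concentrations. Here, GI50 denotes the concentration required for 50% inhibition of growth.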 Activity calls are given as the source filed them. Cut-off read from the data, not from the text of the source: active = GI50 up to about 1.1 µM and inactive = higher.

Experiments:
Assay in all cases: growth of human tumour cells (NCI), 48 h
T47D = tested on: T47D
SN12C = tested on: SN12C
MDA-MB-231 = tested on: MDA-MB-231
MDA-N = tested on: MDA-N
SK-MEL-2 = tested on: SK-MEL-2
XF498 = tested on: XF498
KM12 = tested on: KM12
PC-3 = tested on: PC-3
MDA-MB-435 = tested on: MDA-MB-435
HOP-92 = tested on: HOP-92
UACC-257 = tested on: UACC-257
MCF7 = tested on: MCF7
EKVX = tested on: EKVX
CAKI-1 = tested on: CAKI-1
NCI/ADR-RES = tested on: NCI/ADR-RES
CCRF-CEM = tested on: CCRF-CEM
786-0 = tested on: 786-0
HT-29 = tested on: HT-29
A549 = tested on: A549
RXF 393 = tested on: RXF 393

Measured: GI50

COc1cc(/C=C2\CCC(CN(C)C)C2=O)ccc1OC(=O)c1ccccc1 (stereo not given)
inactive: T47D 3.76 µM | SN12C 10.8 µM | MDA-MB-231 5.47 µM | MDA-N 15.4 µM | SK-MEL-2 17.9 µM | XF498 20.3 µM | KM12 2.99 µM | PC-3 16.4 µM | MDA-MB-435 14.3 µM | HOP-92 17.4 µM | UACC-257 13.5 µM | MCF7 6.25 µM | EKVX 14.2 µM | CAKI-1 17.1 µM | NCI/ADR-RES 16.5 µM | CCRF-CEM 1.96 µM | 786-0 3.76 µM | HT-29 8.07 µM | A549 23.6 µM | RXF 393 7.8 µM

O=C1C(O)=C(CC=C(Cl)Cl)C(=O)c2ccccc21
inactive: T47D 38.5 µM | SN12C 12.9 µM | MDA-MB-231 15.1 µM | MDA-N 16.4 µM | SK-MEL-2 17.7 µM | XF498 32.3 µM | KM12 6.46 µM | PC-3 10.9 µM | MDA-MB-435 11 µM | HOP-92 43 µM | UACC-257 15.1 µM | MCF7 8.87 µM | EKVX 42.3 µM | CAKI-1 23.1 µM | NCI/ADR-RES 19.1 µM | CCRF-CEM 2.82 µM | 786-0 6.17 µM | HT-29 4.6 µM | A549 4.44 µM | RXF 393 28.7 µM
